For the assay, the system named is P388 leukemia ip, CD2F1 mice, survival T/C. The assay can be described thus: NCI In Vivo Anticancer Drug Screen. Data for tumor model P388 Leukemia (intraperitoneal) in CD2F1 (CDF1) mice. Particulars: endpoint: median survival time, higher = longer survival. A digest of the protocol:
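Mice carrying the transplanted tumor received test compound or vehicle. Survival was recorded in each group, and the value is the treated-group measurement divided by that of the vehicle-treated control group.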

[1] abbreviates: dose: 50.0 mg/kg/injection, schedule: Q01DX009 (ip), vehicle: Klucel (hydroxypropylcellulose) (HPC).
[2] abbreviates: dose: 100.0 mg/kg/injection, schedule: Q01DX009 (ip), vehicle: Klucel (hydroxypropylcellulose) (HPC).
The mark [3] stands for this setting: dose: 200.0 mg/kg/injection, schedule: Q01DX009 (ip), vehicle: Klucel (hydroxypropylcellulose) (HPC).

Several values for one entry are separate records, joined by “and”; a condition that tells them apart may be missing. Equal entries are not always repeated. Toxic doses and inconclusive results are not listed.

Regarding `CCOC1(OCC)C(=O)N(c2ccc(Cl)c(Cl)c2)C(=O)N1c1ccc(Cl)c(Cl)c1`, the T/C (dose: 100.0 mg/kg/injection, schedule: Q04DX003 (ip), vehicle: saline) is 95 % of control; the T/C (dose: 200.0 mg/kg/injection, schedule: Q04DX003 (ip), vehicle: saline) was 92 % of control; the T/C (dose: 400.0 mg/kg/injection, schedule: Q04DX003 (ip), vehicle: saline) is 89 % of control.

As for `CC(Cc1ccc(O)cc1)NCC(O)c1ccc(O)c(O)c1` (stereo not given), the T/C is 104 % of control (dose: 50.0 mg/kg/injection, schedule: Q01DX009 (ip), vehicle: saline with Tween-80) and 109 % of control (dose: 100.0 mg/kg/injection, schedule: Q01DX009 (ip), vehicle: saline with Tween-80).

On to `CCOC(=O)C(Cc1c[nH]c2ccccc12)NC(=O)[C@@]1(O)[C@H](O)[C@]2(CC)C=CCN3CC[C@@]4(c5cc([C@@]6(C(=O)OC)C[C@@H]7CN(CCc8c6[nH]c6ccccc86)C[C@](O)(CC)C7)c(OC)cc5N(C)[C@@H]14)[C@@H]32` (stereo not given in full), for which the T/C reads like this: (dose: 1.0 mg/kg/injection, schedule: Q01DX001 (ip), vehicle: saline) 108 % of control and 109 % of control; (dose: 2.0 mg/kg/injection, schedule: Q01DX001 (ip), vehicle: saline) 108 % of control and 112 % of control; (dose: 4.0 mg/kg/injection, schedule: Q01DX001 (ip), vehicle: saline) 109 % of control and 116 % of control; (dose: 8.0 mg/kg/injection, schedule: Q01DX001 (ip), vehicle: saline) 115 % of control and 118 % of control; (dose: 32.0 mg/kg/injection, schedule: Q01DX001 (ip), vehicle: saline) 153 % of control and 157 % of control.

As for `CCCCCC(=O)Nc1ncc([N+](=O)[O-])s1`, the T/C is 116 % of control under setting [1], 113 % of control under setting [2] and 98 % of control under setting [3].

Consider `CCCCCCCCCCC[N+]1(CC)CCCCC1`, for which the T/C is 112 % of control and 93 % of control (dose: 0.78 mg/kg/injection, schedule: Q01DX009 (ip), vehicle: saline); 100 % of control and 102 % of control (dose: 1.56 mg/kg/injection, schedule: Q01DX009 (ip), vehicle: saline); 112 % of control and 97 % of control (dose: 3.12 mg/kg/injection, schedule: Q01DX009 (ip), vehicle: saline); 124 % of control (dose: 6.25 mg/kg/injection, schedule: Q01DX009 (ip), vehicle: saline).

For `CC(=O)Nc1ccc(NC(C)=O)c2c1C(=O)c1ccccc1C2=O`, the T/C (dose: 100.0 mg/kg/injection, schedule: Q04DX003 (ip), vehicle: saline with Tween-80) was 100 % of control; the T/C (dose: 200.0 mg/kg/injection, schedule: Q04DX003 (ip), vehicle: saline with Tween-80) was 100 % of control; the T/C (dose: 400.0 mg/kg/injection, schedule: Q04DX003 (ip), vehicle: saline with Tween-80) is 100 % of control.

Turning to `O=[N+]([O-])c1ccc(N2CC2)c2c1no[n+]2[O-]`, the T/C is 101 % of control (dose: 7.5 mg/kg/injection, schedule: Q04DX003 (ip), vehicle: saline with Tween-80); 99 % of control (dose: 15.0 mg/kg/injection, schedule: Q04DX003 (ip), vehicle: saline with Tween-80); 100 % of control (dose: 30.0 mg/kg/injection, schedule: Q04DX003 (ip), vehicle: saline with Tween-80); 100 % of control (dose: 60.0 mg/kg/injection, schedule: Q04DX003 (ip), vehicle: saline with Tween-80).

Turning to `CC(C)(C)c1cc(C#CC#Cc2cc(C(C)(C)C)cc(C(C)(C)C)c2)cc(C(C)(C)C)c1`, the T/C runs as follows: (dose: 25.0 mg/kg/injection, schedule: Q01DX005 (ip), vehicle: Klucel (hydroxypropylcellulose) (HPC)) 86 % of control; (dose: 50.0 mg/kg/injection, schedule: Q01DX005 (ip), vehicle: Klucel (hydroxypropylcellulose) (HPC)) 86 % of control.

For the molecule `O=P(O)(O)OCC1(O)OCC(O)C(O)C1O` (stereo not given), the T/C was 106 % of control (dose: 12.5 mg/kg/injection, schedule: Q01DX005 (ip), vehicle: saline); 104 % of control (dose: 25.0 mg/kg/injection, schedule: Q01DX005 (ip), vehicle: saline); 99 % of control and 103 % of control (dose: 50.0 mg/kg/injection, schedule: Q01DX005 (ip), vehicle: saline).

Turning to `N#Cc1c(-c2ccccc2)c(-c2ccccc2)nn(CC(=O)O)c1=O`, the T/C (dose: 12.5 mg/kg/injection, schedule: Q01DX005 (ip), vehicle: sodium bicarbonate) is 102 % of control; the T/C (dose: 25.0 mg/kg/injection, schedule: Q01DX005 (ip), vehicle: sodium bicarbonate) is 100 % of control; the T/C (dose: 25.0 mg/kg/injection, schedule: Q04DX002 (ip), vehicle: distilled water + Tween-80) is 101 % of control; the T/C (dose: 50.0 mg/kg/injection, schedule: Q01DX005 (ip), vehicle: sodium bicarbonate) was 101 % of control; the T/C (dose: 50.0 mg/kg/injection, schedule: Q04DX002 (ip), vehicle: distilled water + Tween-80) was 100 % of control; the T/C (dose: 100.0 mg/kg/injection, schedule: Q01DX005 (ip), vehicle: sodium bicarbonate) is 102 % of control. Moreover, the T/C was 101 % of control (dose: 100.0 mg/kg/injection, schedule: Q04DX002 (ip), vehicle: distilled water + Tween-80); 92 % of control (dose: 200.0 mg/kg/injection, schedule: Q01DX005 (ip), vehicle: sodium bicarbonate); 99 % of control (dose: 200.0 mg/kg/injection, schedule: Q04DX002 (ip), vehicle: distilled water + Tween-80).

Turning to `Nc1ccc(N=Nc2ccc3cc4ccc(N=Nc5ccc(N)nc5N)cc4nc3c2)c(N)n1`, the T/C runs as follows: (dose: 6.25 mg/kg/injection, schedule: Q01DX005 (ip), vehicle: saline with Tween-80) 92 % of control; (dose: 12.5 mg/kg/injection, schedule: Q01DX005 (ip), vehicle: saline with Tween-80) 100 % of control and 106 % of control; (dose: 25.0 mg/kg/injection, schedule: Q01DX005 (ip), vehicle: saline with Tween-80) 100 % of control and 116 % of control; (dose: 50.0 mg/kg/injection, schedule: Q01DX005 (ip), vehicle: saline with Tween-80) 95 % of control; (dose: 100.0 mg/kg/injection, schedule: Q01DX005 (ip), vehicle: saline with Tween-80) 106 % of control; (dose: 200.0 mg/kg/injection, schedule: Q01DX005 (ip), vehicle: saline with Tween-80) 109 % of control.

As for `Cc1ccc(S(=O)(=O)NC(=O)C2C(=O)CC3(CCCCC3)CC2=O)cc1`, the T/C runs as follows: under setting [1], 117 % of control; under setting [2], 123 % of control; under setting [3], 124 % of control.

Take `CCOc1ccc(N2C(=O)C(=O)C(C#N)(c3nc4ccccc4o3)C(=O)C2=O)cc1`: the T/C is 98 % of control (dose: 60.0 mg/kg/injection, schedule: Q01DX005 (ip), vehicle: saline with Tween-80); 104 % of control (dose: 120.0 mg/kg/injection, schedule: Q01DX005 (ip), vehicle: saline with Tween-80); 105 % of control (dose: 240.0 mg/kg/injection, schedule: Q01DX005 (ip), vehicle: saline with Tween-80).

For the molecule `CSc1nc(N)n2ncc(Br)c2n1`, the T/C (dose: 100.0 mg/kg/injection, schedule: Q04DX002 (ip), vehicle: saline with Tween-80) is 92 % of control.

As to `COC(=O)C(C)CN1CCCC1` (stereo not given), the T/C (dose: 12.5 mg/kg/injection, schedule: Q04DX003 (ip), vehicle: saline) is 100 % of control; the T/C (dose: 25.0 mg/kg/injection, schedule: Q04DX003 (ip), vehicle: saline) was 100 % of control; the T/C (dose: 50.0 mg/kg/injection, schedule: Q04DX003 (ip), vehicle: saline) is 100 % of control.

For the molecule `CCCCOP(O)(=S)OCCCC.[Fe]`, the T/C reads like this: (dose: 50.0 mg/kg/injection, schedule: Q01DX001 (ip), vehicle: Klucel (hydroxypropylcellulose) (HPC)) 102 % of control; (dose: 100.0 mg/kg/injection, schedule: Q01DX001 (ip), vehicle: Klucel (hydroxypropylcellulose) (HPC)) 102 % of control; (dose: 200.0 mg/kg/injection, schedule: Q01DX001 (ip), vehicle: Klucel (hydroxypropylcellulose) (HPC)) 101 % of control.

Turning to `CC1CCP(c2ccccc2)C1` (stereo not given), the T/C is, setting by setting: (dose: 100.0 mg/kg/injection, schedule: Q01DX001 (ip), vehicle: saline with Tween-80) 105 % of control; (dose: 200.0 mg/kg/injection, schedule: Q01DX001 (ip), vehicle: saline with Tween-80) 116 % of control.

Regarding `COc1ccc(SC(N(C)C)=[N+](C)C)cc1`, the T/C (dose: 15.0 mg/kg/injection, schedule: Q01DX005 (ip), vehicle: saline) is 100 % of control; the T/C (dose: 30.0 mg/kg/injection, schedule: Q01DX005 (ip), vehicle: saline) was 100 % of control; the T/C (dose: 60.0 mg/kg/injection, schedule: Q01DX005 (ip), vehicle: saline) was 102 % of control and 121 % of control.

For the molecule `O=C/C(=C\O)NC(=O)c1ccccc1C(=O)O`, the T/C is 99 % of control (dose: 60.0 mg/kg/injection, schedule: Q01DX005 (ip), vehicle: Klucel (hydroxypropylcellulose) (HPC)); 99 % of control (dose: 120.0 mg/kg/injection, schedule: Q01DX005 (ip), vehicle: Klucel (hydroxypropylcellulose) (HPC)); 92 % of control (dose: 240.0 mg/kg/injection, schedule: Q01DX005 (ip), vehicle: Klucel (hydroxypropylcellulose) (HPC)).

(Values after PubChem BioAssay AID330 (DTP/NCI, 2004).)
